In PMC3458005, “Involvement of the Azotobacter vinelandii Rhodanese-Like Protein RhdA in the Glutathione Regeneration Pathway” (PLoS ONE, 2012):

Experiments:
[1] = tested on: N[C@@H](CCC(=O)N[C@@H](C[S])C(=O)NCC(=O)O)C(=O)O; test: purified protein; settings: pH 7.4; 25.0 °C
RhdA = biological target: T1, RhdA (Azotobacter vinelandii, UniProt P52197); test: intrinsic tryptophan fluorescence titration; assay type: binding
T1 construct: His-tagged (pQER1) from E. coli BL21[pRep4], Ni-NTA purified; cyanide-treated (sulfane sulfur-deprived); only cysteine Cys230
T1 sequence (P52197 whole entry): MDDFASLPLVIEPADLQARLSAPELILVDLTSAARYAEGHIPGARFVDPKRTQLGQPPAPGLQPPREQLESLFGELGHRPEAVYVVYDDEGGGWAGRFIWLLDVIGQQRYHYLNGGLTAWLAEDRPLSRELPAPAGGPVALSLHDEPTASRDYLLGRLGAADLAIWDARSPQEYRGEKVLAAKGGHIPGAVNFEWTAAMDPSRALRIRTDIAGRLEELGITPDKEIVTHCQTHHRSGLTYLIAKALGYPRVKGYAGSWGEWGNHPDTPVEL

RhdA (Azotobacter vinelandii)
Km [1]: 560 ± 110 µM

O=S(O)(O)=S [thiosulfate]
Kd (RhdA): 0.76 ± 0.01 µM

N[C@@H](CCC(=O)N[C@@H](C[S])C(=O)NCC(=O)O)C(=O)O [GS^•, glutathione thiyl radical]
Kd (RhdA): ~11 µM
